Measurements reported in US8217053B2, “Camptothecin derivatives with antitumor activity” (Indena S.p.A., priority 2006, dated 2012).
≈ marks a conversion by molar mass, not a printed value.

How the values were obtained:
lung tumor model = experiment: In vivo comparison on a lung tumor model; conditions: dose 50 mg/kg/inj.
Excerpt: Compound thio-SN38 (IDN6156) was transformed into thio-CPT11 (thio-Irinotecan) according to procedures for the conversion of SN38 to CPT11 (Irinotecan) reported in the literature. The resulting compound thio-irinotecan was compared in vivo with close non-sulforated analogue in clinical use (CPT11) on a lung tumor model highly sensitive to the standard references.

[1] = target: T1, human recombinant enzyme (full length top1) (Homo sapiens, UniProt P11387); experiment: Topoisomerase-I-dependent DNA rupture assay (DNA damage persistence); assay type: biochemical; conditions: 0.6 M NaCl added after 30 min incubation with 10 μM of the drug
T1 construct: the human recombinant enzyme (full length top1)
T1 sequence (P11387 1-765): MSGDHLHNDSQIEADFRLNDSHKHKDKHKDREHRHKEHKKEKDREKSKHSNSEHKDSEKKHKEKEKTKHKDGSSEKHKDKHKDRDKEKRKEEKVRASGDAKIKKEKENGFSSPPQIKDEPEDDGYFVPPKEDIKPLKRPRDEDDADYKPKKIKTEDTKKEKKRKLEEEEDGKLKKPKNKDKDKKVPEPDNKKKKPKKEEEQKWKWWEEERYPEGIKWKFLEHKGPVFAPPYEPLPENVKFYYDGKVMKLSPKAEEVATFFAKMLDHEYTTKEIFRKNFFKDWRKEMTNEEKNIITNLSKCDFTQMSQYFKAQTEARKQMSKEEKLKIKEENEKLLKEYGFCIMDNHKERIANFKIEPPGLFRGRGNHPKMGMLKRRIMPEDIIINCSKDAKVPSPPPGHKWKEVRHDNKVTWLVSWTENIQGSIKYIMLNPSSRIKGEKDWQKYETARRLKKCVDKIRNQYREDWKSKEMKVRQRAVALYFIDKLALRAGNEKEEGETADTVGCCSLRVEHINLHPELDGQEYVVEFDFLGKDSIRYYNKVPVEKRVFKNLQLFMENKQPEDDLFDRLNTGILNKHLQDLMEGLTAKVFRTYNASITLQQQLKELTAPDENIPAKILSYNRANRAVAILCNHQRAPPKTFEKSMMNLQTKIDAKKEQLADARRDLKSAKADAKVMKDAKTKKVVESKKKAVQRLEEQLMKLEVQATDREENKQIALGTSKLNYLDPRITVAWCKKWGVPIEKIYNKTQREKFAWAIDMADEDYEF

[2] = test system: NCI-H460 cell line (NSCL cancer); experiment: Cell growth inhibition assay (cytotoxicity); assay type: cell-based, human; conditions: counted 72 hours after exposure, 1 or 72 hr drug exposure; for IC50: Homo sapiens, NCI-H460, read-out: NCI-H460 IC50 (μg/mL) Cell count, H460 human large cell lung tumor cells; for NCI-H460 IC50 (μg/mL) Cell count: H460 human large cell lung tumor cells
Description: The compounds of the invention were tested in a cytotoxicity assay on a wide spectrum of tumour cells. By way of example, the cytotoxicity data on the NCI-H460 cell line (NSCL cancer) concerning two compounds of formula (I) are reported, using camptothecin and the drugs Topotecan and SN-38 as references:
H460 Cells from human large cell lung tumor were cultured in RPMI-1640 medium containing 10% foetal calf serum. Cell sensitivity was determined by cell growth inhibition assay after 1 or 72 hr drug exposure. The cells in logarithmic growth were collected and seeded in duplicate in 6-wells plates. […] IC50 is defined as the concentration inhibiting by 50% cell growth compared with untreated controls growth.

SMILES	Max BWL % (lung tumor model)	TWI % (lung tumor model)	Tox/Tot (lung tumor model)	LCK (0.5 g) (lung tumor model; 0.5 g)	Persistence of DNA damage (%) ([1]; time 0 min)	Persistence of DNA damage (%) ([1]; time 1 min)	Persistence of DNA damage (%) ([1]; time 5 min)	Persistence of DNA damage (%) ([1]; time 10 min)	IC50 [2]	NCI-H460 IC50 (μg/mL) Cell count [2]
CCc1c2c(nc3ccc(OC(=O)N4CCC(N5CCCCC5)CC4)cc13)-c1cc3c(c(=O)n1C2)COC(=O)[C@]3(O)CC [CPT 11]	15%	91%	0/5	1.8						
CC[C@@]1(O)C(=O)OCc2c1cc1n(c2=O)Cc2cc3ccccc3nc2-1 [Camptothecin]					100%	58%	23%	20%		
CC[C@@]1(O)C(=O)OCc2c1cc1n(c2=S)Cc2cc3ccccc3nc2-1 [IDN 6070, Thio-camptothecin]					100%	33%	10%	10%	0.05 ± 0.021 µg/mL (≈ 0.137 µM)	
CC[C@@]1(O)C(=O)OCc2c1cc1n(c2=S)C(N=[N+]=[N-])c2cc3ccccc3nc2-1 (some centres unmarked) [IDN 6092]					100%	35%	18%	15%		0.3 ± 0.07 µg/mL
CC[C@@]1(O)C(=O)OCc2c1cc1n(c2=S)C(N=[N+]=[N-])c2cc3ccccc3nc2-1 (some centres unmarked) [IDN 6093]										0.72 ± 0.2 µg/mL
CCc1c2c(nc3ccc(O)cc13)-c1cc3c(c(=S)n1C2)COC(=O)[C@]3(O)CC [IDN 6156, ThioSN-38]					100%	100%	80%	60%	0.0095 ± 0.0007 µg/mL (≈ 0.0233 µM)	
CC[C@@]1(O)C(=O)OCc2c1cc1n(c2=S)Cc2cc3c(CN(C)C)c(O)ccc3nc2-1 [IDN 6180, Thio-Topotecan]									0.115 ± 0.021 µg/mL (≈ 0.263 µM)	
CC[C@@]1(O)C(=O)OCc2c1cc1n(c2=S)Cc2cc3cc(O)ccc3nc2-1 [IDN 6181, 10-hydroxy-Thio-Camptothecin]					100%	88%	50%	22%	0.035 ± 0.011 µg/mL (≈ 0.092 µM)	
CCc1c2c(nc3ccc(O)cc13)-c1cc3c(c(=O)n1C2)COC(=O)[C@]3(O)CC [SN38, 10-hydroxy-7-ethylcamptothecin, reference compound]					100%	60%	33%	28%		
CC[C@@]1(O)C(=O)OCc2c1cc1n(c2=O)Cc2cc3c(CN(C)C)c(O)ccc3nc2-1 [Topotecan, reference compound]					100%	65%	20%	10%		
